Results as given in patent publication US10005769B2, “2,3-dihydrobenzofuran-5YL compounds as DYRK kinase inhibitors” (4SC DISCOVERY GMBH, priority 2013, dated 2018).

Key:
[1] = tested on: Hedgehog signaling pathway (Gli Reporter - NIH3T3 cell line); experiment: Hedgehog Reporter Assay (Gli-Reporter, luciferase, mSHH stimulated); format: cell-based, murine; settings: Mus musculus; Gli Reporter NIH3T3 cells, 1 μg/ml mSHH, 24 h
Description: In order to investigate the potency of test compounds to inhibit the Hedgehog signaling pathway, a Gli-Reporter assay was performed. The “Gli Reporter-NIH3T3” cell line contains the firefly luciferase gene under the control of Gli responsive elements stably integrated into murine NIH3T3 cells (cells purchased from AMS Biotechnology ltd., 184 Milton Park, Abingdon OX14 4SE, U.K.). The luciferase expression correlates with activation of the hedgehog signaling pathway. This cell line is validated for its response to stimulation with murine Sonic Hedgehog and to treatment with inhibitors of the hedgehog signaling pathway. A multiplexed viability assay was used to discriminate inhibition on the pathway activity from cell toxicity. Growth Medium: DMEM (Dulbecco's Modified Eagle Medium); 10% Fetal Calf Serum; 1% Penicillin/Streptomycin; 500 μg/ml Geneticin (G418 Stock 50 mg/ml). Assay Medium: Opti-MEM® Reduced Serum Medium; 0.5% Calf Serum; 1% non-essential amino acids; 1 mM Na-pyruvate; 10 mM HEPES; 1% Penicillin/Streptomycin. 25,000 cells per well were seeded into a white 96 well plate in 100 μl growth medium and incubated over night at 37° C. and 5% CO2. After removing the supernatant the test compounds and controls were added in different concentrations in a final volume of 45 μl and incubated for 1 h at 37° C. and 5% CO2. For the stimulation of the Hedgehog pathway 5 μl of 10 μg/ml concentrated murine SHH (or mSHH; murine sonic hedgehog protein) was added to the cells. A final concentration of 1 μg/ml mSHH and 0.1% DMSO was reached per well. After incubation for 24 h at 37° C. the cells were investigated for viability and reporter activity. Viability: For the determination of the viability of the treated cells the CellTiter-FluorTM Kit from Promega comprising the fluorogenic, cell-permeant peptide substrate ([…]-aminofluorocoumarin GF-AFC was used. Roughly, only proteases of viable cells are able to cleave the GF-AFC. By this cleavage the fluorescent AFC is set free and can be detected in a fluorescence reader. For this assay 10 μl of GF-AFC substrate (CellTiter-FluorTM, Promega #G6082) was diluted in 2 ml assay buffer from the CellTiter-FluorTM Kit and 10 μl of this dilution was added per well to the cells and incubated for 30 min at 37° C. The fluorescence was measured with an excitation of 380-400 nm and an emission of 505 nm. Reporter activity: The firefly luciferase reporter activity was detected with the ONE-GloTM Luciferase Assay System from Promega. For this assay 50 μl ONE-Glo luciferase reagent (Promega #E6120, contains cell lysis buffer and luciferin) was added to each well and incubated at room temperature for 5 min. Luminescence was detected in a plate reader and served as a measure for reporter activity.

DYRK1B = DYRK1B (Homo sapiens (Human), UniProt Q9Y463); experiment: DYRK1B Kinase Assay (33P ATP, DYRKtide substrate, Reaction Biology Corp.); format: biochemical; settings: 0.3 nM DYRK1B, 20 μM DYRKtide, 10 μM ATP, 25° C., 120 min
Sequence of DYRK1B (Q9Y463 whole entry): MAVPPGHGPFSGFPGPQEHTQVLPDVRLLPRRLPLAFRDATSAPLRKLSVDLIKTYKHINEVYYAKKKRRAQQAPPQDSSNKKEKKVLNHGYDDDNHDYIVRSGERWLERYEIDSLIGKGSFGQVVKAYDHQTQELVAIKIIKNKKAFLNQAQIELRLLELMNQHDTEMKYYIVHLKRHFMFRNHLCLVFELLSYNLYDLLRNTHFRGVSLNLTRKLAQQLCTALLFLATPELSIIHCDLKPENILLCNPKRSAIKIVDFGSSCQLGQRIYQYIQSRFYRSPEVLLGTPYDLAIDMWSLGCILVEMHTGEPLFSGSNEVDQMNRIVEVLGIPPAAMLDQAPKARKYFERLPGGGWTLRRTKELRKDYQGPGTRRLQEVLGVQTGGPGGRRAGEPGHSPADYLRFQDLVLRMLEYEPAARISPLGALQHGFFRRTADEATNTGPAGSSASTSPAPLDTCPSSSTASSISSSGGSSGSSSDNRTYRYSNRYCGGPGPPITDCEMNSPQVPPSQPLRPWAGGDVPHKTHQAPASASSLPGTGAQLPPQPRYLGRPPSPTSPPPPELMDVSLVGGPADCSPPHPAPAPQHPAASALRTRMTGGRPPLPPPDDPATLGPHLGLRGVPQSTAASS
Description: The assay was carried out by Reaction Biology Corp., […], Pa., USA according to specifications by Reaction Biology Corp., as detailed herein below and further described in Anastassiadis et al., Nature Biotechnology, 29 (2011) 1039-1045. The substrate DYRKtide (synthetic peptide RRRFRPASPLRGPPK) was dissolved in freshly prepared Base Reaction Buffer (20 mM Hepes (pH 7.5), 10 mM MgCl2, 1 mM EGTA, 0.02% Brij35, 0.02 mg/ml BSA, 0.1 mM Na3VO4, 2 mM DTT, 1% DMSO) at a concentration of 20 μM. DYRK1B was added to the substrate solution in a concentration of 0.3 nM and gently mixed. Dilution series of the compounds according to the present invention in DMSO were prepared. Each dilution was added to a batch of the above reaction mix, followed 20 min later by addition of a mixture of ATP and ^33P ATP (specific activity 0.01 μCi/μl final) to a final concentration of 10 μM. Reactions were carried out at 25° C. for 120 min, followed by spotting the reactions onto P81 ion exchange filter paper. Unbound phosphate was removed by extensive washing of the filters in 0.75% phosphoric acid. […] IC50 values and curve fits were obtained using Prism (Graph Pad Software). DYRK1B used in the above assays are further described in the below table: [table] Exemplary compound dilution series, final concentrations of compound in the assay vessel; the individual concentrations and the range of concentrations covered by the dilution series may differ for each compound, as long as enough data points are obtained to determine the compound's IC50: DYRK 1[…].

Row | Compound | IC50 (DYRK1B) | IC50 [1]
1 | N#Cc1ccc2[nH]c(NC(=O)c3csc(-c4ccc5c(c4)CCO5)n3)nc2c1 [Compound 1, N-(5-Cyano-1H-benzo[d]imidazol-2-yl)-2-(2,3-dihydrobenzofuran-5-yl)thiazole-4-carboxamide] | 1.38 nM | 1000 to 3000 nM
2 | O=C(Nc1nc2cc(Cl)c(F)cc2[nH]1)c1csc(-c2ccc3c(c2)CCO3)n1 [Compound 2, N-(5-Chloro-6-fluoro-1H-benzo[d]imidazol-2-yl)-2-(2,3-dihydrobenzofuran-5-yl)thiazole-4-carboxamide] | 48.2 nM | 1000 to 3000 nM
3 | COc1ccc2[nH]c(NC(=O)c3csc(-c4ccc5c(c4)CCO5)n3)nc2c1 [Compound 4, 2-(2,3-Dihydrobenzofuran-5-yl)-N-(5-methoxy-1H-benzo[d]imidazol-2-yl)thiazole-4-carboxamide] | 13.9 nM | 3000 to 10000 nM
4 | O=C(Nc1nc2cc(Cl)ccc2[nH]1)c1csc(-c2ccc3c(c2)CCO3)n1 [Compound 6, N-(5-Chloro-1H-benzo[d]imidazol-2-yl)-2-(2,3-dihydrobenzofuran-5-yl)thiazole-4-carboxamide] | 1.9 nM | 1000 to 3000 nM
5 | O=C(Nc1nc2cc(C(=O)N3CCN(CC4CCCO4)CC3)ccc2[nH]1)c1csc(-c2ccc3c(c2)CCO3)n1 (stereo not shown) [Compound 8, 2-(2,3-Dihydrobenzofuran-5-yl)-N-(5-(4-((tetrahydrofuran-2-yl)methyl)piperazine-1-carbonyl)-1H-benzo[d]imidazol-2-yl)thiazole-4-carboxamide] | 3.11 nM | < 1000 nM
6 | CCOC(=O)c1ccc2[nH]c(NC(=O)c3csc(-c4ccc5c(c4)CCO5)n3)nc2c1 [Compound 9, Ethyl 2-(2-(2,3-dihydrobenzofuran-5-yl)thiazole-4-carboxamido)-1H-benzo[d]imidazole-5-carboxylate] | 3.63 nM | < 1000 nM
7 | O=C(Nc1nc2cc(C(=O)N3CCOCC3)ccc2[nH]1)c1csc(-c2ccc3c(c2)CCO3)n1 [Compound 10, 2-(2,3-Dihydrobenzofuran-5-yl)-N-(5-(morpholine-4-carbonyl)-1H-benzo[d]imidazol-2-yl)thiazole-4-carboxamide] | 3.72 nM | < 1000 nM
8 | O=C(Nc1nc(-c2cccc(F)c2)n[nH]1)c1csc(-c2ccc3c(c2)CCO3)n1 [Compound 68, 2-(2,3-Dihydro-1-benzofuran-5-yl)-N-[3-(3-fluorophenyl)-1H-1,2,4-triazol-5-yl]-1,3-thiazole-4-carboxamide] | 67.1 nM | –
9 | Cc1nsc(NC(=O)c2csc(-c3ccc4c(c3)CCO4)n2)n1 [Compound 69, 2-(2,3-Dihydro-1-benzofuran-5-yl)-N-(3-methyl-1,2,4-thiadiazol-5-yl)-1,3-thiazole-4-carboxamide] | 72.6 nM | –
10 | Nc1nc(NC(=O)c2csc(-c3ccc4c(c3)CCO4)n2)ns1 [Compound 70, N-(5-Amino-1,2,4-thiadiazol-3-yl)-2-(2,3-dihydro-1-benzofuran-5-yl)-1,3-thiazole-4-carboxamide] | 73.4 nM | –
11 | O=C(Nc1nncs1)c1csc(-c2ccc3c(c2)CCO3)n1 [Compound 71, 2-(2,3-Dihydro-1-benzofuran-5-yl)-N-(1,3,4-thiadiazol-2-yl)-1,3-thiazole-4-carboxamide] | 76.6 nM | –
12 | Cc1csc(NC(=O)c2csc(-c3ccc4c(c3)CCO4)n2)n1 [Compound 72, 2-(2,3-Dihydro-1-benzofuran-5-yl)-N-(4-methyl-1,3-thiazol-2-yl)-1,3-thiazole-4-carboxamide] | 111 nM | –
13 | O=C(Nc1ncns1)c1csc(-c2ccc3c(c2)CCO3)n1 [Compound 73, 2-(2,3-Dihydro-1-benzofuran-5-yl)-N-(1,2,4-thiadiazol-5-yl)-1,3-thiazole-4-carboxamide] | 114 nM | –
14 | Cc1nc(NC(=O)c2csc(-c3ccc4c(c3)CCO4)n2)sc1C [Compound 74, 2-(2,3-Dihydro-1-benzofuran-5-yl)-N-(dimethyl-1,3-thiazol-2-yl)-1,3-thiazole-4-carboxamide] | 125 nM | –
15 | O=C(Nc1nc2ccccc2s1)c1csc(-c2ccc3c(c2)CCO3)n1 [Compound 75, N-(1,3-Benzothiazol-2-yl)-2-(2,3-dihydro-1-benzofuran-5-yl)-1,3-thiazole-4-carboxamide] | 135 nM | –
16 | CC(=O)c1csc(NC(=O)c2csc(-c3ccc4c(c3)CCO4)n2)n1 [Compound 76, N-(4-Acetyl-1,3-thiazol-2-yl)-2-(2,3-dihydro-1-benzofuran-5-yl)-1,3-thiazole-4-carboxamide] | 185 nM | –
17 | O=C(Nc1ncco1)c1csc(-c2ccc3c(c2)CCO3)n1 [Compound 79, 2-(2,3-Dihydro-1-benzofuran-5-yl)-N-(1,3-oxazol-2-yl)-1,3-thiazole-4-carboxamide] | 766 nM | –

More lines, in order of falling IC50 (DYRK1B), values ahead:

Row | IC50 (DYRK1B) | Compound | IC50 [1]
18 | 420 nM | CSc1nc(NC(=O)c2csc(-c3ccc4c(c3)CCO4)n2)ns1 [Compound 77, 2-(2,3-Dihydro-1-benzofuran-5-yl)-N-[5-(methylsulfanyl)-1,2,4-thiadiazol-3-yl]-1,3-thiazole-4-carboxamide] | –
19 | 410 nM | CCOC(=O)c1csc(NC(=O)c2csc(-c3ccc4c(c3)CCO4)n2)n1 [Compound 78, Ethyl 2-[2-(2,3-dihydro-1-benzofuran-5-yl)-1,3-thiazole-4-amido]-1,3-thiazole-4-carboxylate] | –
20 | 156 nM | O=C(Nc1nc2c(C(F)(F)F)cccc2[nH]1)c1csc(-c2ccc3c(c2)CCO3)n1 [Compound 12, 2-(2,3-Dihydrobenzofuran-5-yl)-N-(4-(trifluoromethyl)-1H-benzo[d]imidazol-2-yl)thiazole-4-carboxamide] | 3000 to 10000 nM
21 | 109 nM | Ethyl 5-(2-(2,3-dihydrobenzofuran-5-yl)thiazole-4-carboxamido)-4H-1,2,4-triazole-3-carboxylate [Compound 20] | –
22 | 66.8 nM | O=C(Nc1ncc[nH]1)c1csc(-c2ccc3c(c2)CCO3)n1 [Compound 11, 2-(2,3-Dihydrobenzofuran-5-yl)-N-(1H-imidazol-2-yl)thiazole-4-carboxamide] | 1000 to 3000 nM
23 | 65.9 nM | O=C(Nc1nnc(Br)s1)c1csc(-c2ccc3c(c2)CCO3)n1 [Compound 67, N-(5-Bromo-1,3,4-thiadiazol-2-yl)-2-(2,3-dihydro-1-benzofuran-5-yl)-1,3-thiazole-4-carboxamide] | –
24 | 50.5 nM | Cc1cc(NC(=O)c2csc(-c3ccc4c(c3)CCO4)n2)n[nH]1 [Compound 66, 2-(2,3-Dihydro-1-benzofuran-5-yl)-N-(5-methyl-1H-pyrazol-3-yl)-1,3-thiazole-4-carboxamide] | –
25 | 1.74 nM | CN(C)C(=O)c1ccc2[nH]c(NC(=O)c3csc(-c4ccc5c(c4)CCO5)n3)nc2c1 [Compound 7, 2-(2,3-Dihydrobenzofuran-5-yl)-N-(5-(dimethylcarbamoyl)-1H-benzo[d]imidazol-2-yl)thiazole-4-carboxamide] | < 1000 nM
26 | 1.49 nM | CS(=O)(=O)c1ccc2[nH]c(NC(=O)c3csc(-c4ccc5c(c4)CCO5)n3)nc2c1 [Compound 3, 2-(2,3-Dihydrobenzofuran-5-yl)-N-(5-(methylsulfonyl)-1H-benzo[d]imidazol-2-yl)thiazole-4-carboxamide] | < 1000 nM
